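Dose response: 5 concentrations. Exposure: 48 h. Format: 96-well plates. Endpoint: linear interpolation; highest concentration if not reached. The concentration for 50% growth inhibition is given as GI50.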 Activity calls are given as the source filed them. No stated cut-off is given here; in the data, active = GI50 up to about 1.1 µM and inactive = higher.
How the values were obtained:
Experiment in all cases: NCI-60 cell line screen, 48 h
786-0 = tested on: 786-0
A498 = tested on: A498
ACHN = tested on: ACHN
BT-549 = tested on: BT-549
COLO 205 = tested on: COLO 205
EKVX = tested on: EKVX
HT-29 = tested on: HT-29
Hs-578T = tested on: Hs-578T
LOX IMVI = tested on: LOX IMVI
MDA-MB-435 = tested on: MDA-MB-435
NCI-H522 = tested on: NCI-H522
OVCAR-3 = tested on: OVCAR-3
OVCAR-4 = tested on: OVCAR-4
RPMI-8226 = tested on: RPMI-8226
RXF 393 = tested on: RXF 393
SF-268 = tested on: SF-268
SK-MEL-28 = tested on: SK-MEL-28
SW-620 = tested on: SW-620
T47D = tested on: T47D
XF498 = tested on: XF498

Measured: GI50

CCCCCCCCCCCCCCCCOP(=O)(O)OCC(NC(C)=O)C(=O)O (configuration not stated)
inactive: 786-0 73.3 µM | A498 32.4 µM | ACHN > 100 µM | BT-549 18.8 µM | COLO 205 > 100 µM | EKVX > 100 µM | HT-29 > 100 µM | Hs-578T 27.9 µM | LOX IMVI > 100 µM | MDA-MB-435 35.4 µM | NCI-H522 5.64 µM | OVCAR-3 98.2 µM | OVCAR-4 25.9 µM | RPMI-8226 41.7 µM | RXF 393 21.7 µM | SF-268 31 µM | SK-MEL-28 > 100 µM | SW-620 > 100 µM | T47D > 100 µM

CCCCCCCCCCCCCCCCCCNc1ccn(C2OC(COP(=O)(O)OCC3OC(n4ccc(NC(=O)CCCCCCCCCCCCCCCCC)nc4=O)C(OC(C)=O)C3OC(C)=O)C(OC(C)=O)C2OC(C)=O)c(=O)n1 (configuration not stated)
inactive: 786-0 > 100 µM | A498 > 100 µM | ACHN > 100 µM | BT-549 > 100 µM | COLO 205 > 100 µM | EKVX > 100 µM | HT-29 > 100 µM | Hs-578T > 100 µM | LOX IMVI > 100 µM | MDA-MB-435 > 100 µM | NCI-H522 > 100 µM | OVCAR-3 > 100 µM | OVCAR-4 > 100 µM | RPMI-8226 > 100 µM | RXF 393 > 100 µM | SF-268 > 100 µM | SK-MEL-28 > 100 µM | SW-620 > 100 µM | T47D > 100 µM

CCN1C(C)=NC2C(=O)c3ccccc3C(=O)C21 (configuration not stated)
inactive: 786-0 65.5 µM | A498 > 100 µM | ACHN 74.8 µM | COLO 205 33.5 µM | EKVX > 10 µM | HT-29 28.8 µM | LOX IMVI 46.9 µM | OVCAR-3 27.4 µM | OVCAR-4 21 µM | RPMI-8226 55.7 µM | RXF 393 > 100 µM | SF-268 57.7 µM | SK-MEL-28 > 100 µM | SW-620 32.6 µM | XF498 42.5 µM

CCC/C(Cl)=N\OC(=O)Nc1ccc(F)cc1
inactive: 786-0 6.5 µM | A498 16.9 µM | ACHN 12.3 µM | BT-549 15.1 µM | COLO 205 3.16 µM | EKVX 17.3 µM | HT-29 28.3 µM | Hs-578T 41.5 µM | LOX IMVI 4.15 µM | MDA-MB-435 16.5 µM | NCI-H522 1.87 µM | OVCAR-3 5.24 µM | OVCAR-4 16.9 µM | RPMI-8226 6.01 µM | RXF 393 18.4 µM | SF-268 26.1 µM | SK-MEL-28 18.5 µM | SW-620 7 µM | T47D 7.24 µM

O=C(O)CNS(=O)(=O)c1ccc(NC(=O)c2ccc([N+](=O)[O-])cc2)cc1
inactive: 786-0 > 100 µM | A498 > 100 µM | ACHN > 100 µM | COLO 205 > 100 µM | EKVX > 100 µM | HT-29 > 100 µM | LOX IMVI > 100 µM | NCI-H522 79.6 µM | OVCAR-3 > 100 µM | OVCAR-4 > 100 µM | RPMI-8226 > 100 µM | RXF 393 > 100 µM | SF-268 > 100 µM | SK-MEL-28 > 100 µM | SW-620 > 100 µM | XF498 > 100 µM

C[C@@H]1CC2(C[C@@H](C)C3[C@@H](CC4(C)CCCC5C6=CC(O)(CC[C@]34C)OC6=CC(=O)OC5(C)C)O2)OC1=O (some centres not stated)
inactive: 786-0 > 100 µM | ACHN > 100 µM | COLO 205 > 100 µM | LOX IMVI > 100 µM | NCI-H522 > 100 µM | OVCAR-3 > 100 µM | OVCAR-4 > 100 µM | RPMI-8226 > 100 µM | RXF 393 > 100 µM | SK-MEL-28 > 100 µM | SW-620 > 100 µM | XF498 > 100 µM

Cc1cc(=O)oc2cc(O)ccc12 [HYMECROMONE]
inactive: 786-0 > 100 µM | A498 65.8 µM | ACHN > 100 µM | BT-549 88.3 µM | COLO 205 > 100 µM | EKVX > 100 µM | HT-29 > 100 µM | Hs-578T > 100 µM | LOX IMVI > 100 µM | MDA-MB-435 > 100 µM | NCI-H522 > 100 µM | OVCAR-3 > 100 µM | OVCAR-4 > 100 µM | RPMI-8226 > 100 µM | RXF 393 > 100 µM | SF-268 > 100 µM | SK-MEL-28 > 100 µM | SW-620 > 100 µM | T47D > 100 µM

COC[C@@H]1Cc2cc(OC)c3c(c2[C@H](c2ccc(OC)c(OC)c2)[C@H]1COC)OCO3 [HYPOPHYLLANTHIN]
inactive: A498 > 100 µM | ACHN 93.8 µM | COLO 205 > 100 µM | EKVX > 100 µM | HT-29 > 100 µM | LOX IMVI > 100 µM | NCI-H522 55.7 µM | OVCAR-3 > 100 µM | RXF 393 42.6 µM | SF-268 51.6 µM | SK-MEL-28 > 100 µM | SW-620 > 100 µM | XF498 19.1 µM
